Experimental data taken from PubChem BioAssay (NCI).
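Five concentrations, 48 hours, 96-well plates. The concentration for full growth arrest is given as TGI.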

Experiments:
Experiment in all cases: NCI-60 cell line screen, 48 h
[1] = system: 786-0 renal
[2] = system: A498 renal
[3] = system: ACHN renal
[4] = system: CCRF-CEM leukemia
[5] = system: EKVX NSCLC
[6] = system: HOP-62 NSCLC
[7] = system: HS 578T breast
[8] = system: IGROV1 ovarian
[9] = system: M14 melanoma
[10] = system: MCF7 breast
[11] = system: MDA-MB-231 breast
[12] = system: MOLT-4 leukemia
[13] = system: NCI-H460 lung
[14] = system: NCI-H522 lung
[15] = system: NCI/ADR-RES ovarian
[16] = system: OVCAR-3 ovarian
[17] = system: OVCAR-5 ovarian
[18] = system: SK-OV-3 ovarian
[19] = system: SW-620 colon
[20] = system: UACC-62 melanoma

| SMILES | TGI [1] [µM] | TGI [2] [µM] | TGI [3] [µM] | TGI [4] [µM] | TGI [5] [µM] | TGI [6] [µM] | TGI [7] [µM] | TGI [8] [µM] | TGI [9] [µM] | TGI [10] [µM] | TGI [11] [µM] | TGI [12] [µM] | TGI [13] [µM] | TGI [14] [µM] | TGI [15] [µM] | TGI [16] [µM] | TGI [17] [µM] | TGI [18] [µM] | TGI [19] [µM] | TGI [20] [µM] |
| --- | --- | --- | --- | --- | --- | --- | --- | --- | --- | --- | --- | --- | --- | --- | --- | --- | --- | --- | --- | --- |
| Cc1n[nH]c(=O)n1/N=C/c1cccnc1 | > 100 | > 100 | > 100 | > 100 | > 100 | > 100 | > 100 | > 100 | > 100 | > 100 | > 100 | > 100 | > 100 | > 100 | > 100 | > 100 | > 100 | > 100 | > 100 | > 100 |
| CCn1c(SCC(=O)NNC(=S)Nc2ccc(F)cc2)nc2ccccc2c1=O | > 100 | > 100 | > 100 | > 100 | > 100 | > 100 | > 100 | > 100 | > 100 | > 100 | > 100 | > 100 | – | > 100 | > 100 | > 100 | > 100 | > 100 | > 100 | > 100 |
| COc1ccccc1CNCc1nc2ccccc2[nH]1 | > 100 | > 100 | > 100 | > 100 | > 100 | > 100 | > 100 | > 100 | > 100 | > 100 | > 100 | > 100 | > 100 | > 100 | > 100 | > 100 | > 100 | – | > 100 | > 100 |
| CC(C)(C)C(=O)Nc1cccc(-c2ccc[nH]2)n1 | > 100 | > 100 | > 100 | > 100 | > 100 | > 100 | 87.5 | > 100 | > 100 | > 100 | > 100 | > 100 | > 100 | > 100 | > 100 | > 100 | > 100 | > 100 | > 100 | > 100 |
| O=c1[nH]n(Cc2ccccc2CCl)c2ccc([N+](=O)[O-])cc12 | > 100 | > 100 | > 100 | > 100 | > 100 | > 100 | > 100 | > 100 | > 100 | > 100 | > 100 | 90.8 | 95.8 | 63.2 | > 100 | > 100 | > 100 | 81.8 | > 100 | > 100 |
| O=C1CCSc2c(cnc3ccccc23)N1 | > 100 | > 100 | > 100 | > 100 | > 100 | > 100 | > 100 | > 100 | > 100 | > 100 | > 100 | > 100 | > 100 | > 100 | > 100 | > 100 | > 100 | > 100 | > 100 | > 100 |
| CC(=C(C(=O)O)C(=O)O)c1cc(-c2cccs2)cc(-c2ccc(Cl)cc2)c1O | 32.2 | 30.8 | 29.4 | > 76.5 | 32.2 | 60.4 | > 90.7 | 29.3 | 32.7 | 17.9 | 43.5 | 69.7 | 37.3 | 33.3 | 57.2 | 33.6 | > 86.8 | > 82.5 | 43.6 | 35.7 |
| O=c1c2c3c(sc2nc2n1N=CN(c1ccc(Cl)cc1)C2)CCCC3 | > 100 | > 100 | > 100 | > 100 | > 100 | > 100 | 36.9 | > 100 | > 100 | > 100 | > 100 | > 100 | > 100 | > 100 | > 100 | > 100 | > 100 | > 100 | > 100 | > 100 |
| CCO/C(O)=C(/C(=N)N1CCCC1)C(=O)Nc1ccc(Cl)cc1 | > 100 | > 100 | > 100 | > 100 | > 100 | > 100 | > 100 | > 100 | > 100 | > 100 | > 100 | > 100 | > 100 | > 100 | > 100 | > 100 | > 100 | > 100 | > 100 | > 100 |
| C#C[C@]1(O)CC[C@H]2[C@@H]3CCC4=C/C(=N\OCCN5CCCC5)CC[C@]4(C)[C@H]3CC[C@@]21C | 24.4 | 50.4 | 47.2 | 51.6 | 38.1 | 26.7 | 21.7 | 23.2 | 22.5 | 21.5 | 36.2 | 17.9 | 40.6 | 12 | 31.5 | 27.1 | 50.3 | 54.6 | > 49.5 | 27.5 |
| CNC(=S)NNC1=NCCCCN1 | > 100 | > 100 | > 100 | > 100 | > 100 | > 100 | > 100 | > 100 | > 100 | > 100 | > 100 | > 100 | > 100 | > 100 | > 100 | > 100 | > 100 | > 100 | > 100 | > 100 |
| C/C(=C/CNc1ncnc2c1ncn2CCC#N)CO | > 100 | > 100 | > 100 | > 100 | > 100 | > 100 | > 100 | > 100 | > 100 | > 100 | > 100 | > 100 | > 100 | > 100 | > 100 | > 100 | > 100 | > 100 | > 100 | > 100 |
